Experiments:
[1] = Cell migration (scratch) assay, skin barrier repair; type: cell-based; settings: sample 100 mg/L
Method: Principle: When cells grow to form a confluent monolayer, a scratch tool is used to create a cell-free blank area on the confluent monolayer cells, the cells in the blank area are removed by a mechanical force, and through a period of incubation, the migration of the cells to the cell-free area is observed, and the migration ability of the cells is reflected by measuring the migration distance of the cells.
• 1. Marking the culture plate. Use a marker pen and ruler to draw evenly spaced horizontal lines (approximately 0.5-1 cm apart) on the back of a 6-well plate, ensuring at least 5 lines cross each well. Avoid thick lines. • 2. Cell seeding. Seed approximately 5×10^5 cells per well (the number varies for varied cells, adjusting based on cell growth rate), and the principle of inoculation is to achieve 100% confluence overnight. • 3. Cell scratching. On the following day, use a pipette tip perpendicular to the cell layer to create scratches along the pre-marked lines on the back of the plate (It is best to use the same tip for all wells). • 4. Cell washing. After the scratching was completed, rinse the cells three times with sterile PBS to remove dislodged cells, leaving a clear visible scratch gap, and then replace with fresh serum-free medium. • 5. Cell culturing and observation. […]

[2] = DPPH free radical scavenging assay
Method: DPPH is 1,1-diphenyl-2-picrylhydrazyl and can be used in antioxidant experiments.
Samples at corresponding concentrations (50, 100, 200, 400, 800 mg/L) were mixed with […] DPPH and absolute ethanol at a 1:1 volume ratio, respectively. DPPH and absolute ethanol were mixed at a 1:1 volume ratio, reacted at room temperature in the dark for 30 min, and the absorbance was measured at 517 nm. The absorbance of the sample mixed with DPPH is denoted as A1, the absorbance of the sample mixed with absolute ethanol is denoted as A2, and the absorbance of DPPH mixed with absolute ethanol is denoted as A3. The DPPH scavenging rate of the sample is calculated as [1−(A1−A2)/A3]×100%.

CCCCCCCC/C=C\CCCCCCCC(=O)N[C@@H](CO)[C@H](O)[C@H](O)CCCCCCCCCCCCCC [ceramide 3B, oleic acid ceramide]
healing rate after 24 h [1]: 59.32%
DPPH free radical scavenging rate ([2]; 50 mg/L): 7.76%
DPPH free radical scavenging rate ([2]; 100 mg/L): 12.82%
DPPH free radical scavenging rate ([2]; 200 mg/L): 24.10%
DPPH free radical scavenging rate ([2]; 400 mg/L): 29.60%
DPPH free radical scavenging rate ([2]; 800 mg/L): 33.16%

— patent publication US20260200831A1, “Plant Oil Ceramides, Synthesis Method and Use Thereof” (SHENZHEN DIKEMAN BIOTECHNOLOGY CO., LTD., priority 2022, published 2026)
